The record followed here is patent US10570129B2 (Zoetis Services LLC, priority 2015, dated 2020).

Assay [1] has as its system Haemonchus contortus L3. The assay is described as follows: microbe, parasite or virus in culture. The settings on record: Haemonchus contortus, 96 h, read-out: HcL3 Minimal Effective Concentration (MEC). The class given is cell-based.
Assay [2] concerns D. immitis microfilariae. The assay is described as follows: Dirofilaria immitis, microfilariae (DiMF) in vitro motility assay. Format: cell-based. The conditions noted are these: Dirofilaria immitis, 72 h, read-out: DiMF minimally effective dose (MEC).

As to `N#Cc1ccc2c(c1)c1c(n2C(=O)NCc2ccnc(Cl)c2)CCN(C/C=C/c2ccc(Br)c(F)c2F)C1` [Example 81, (E)-2-(3-(4-bromo-2,3-difluorophenyl)allyl)-N-((2-chloropyridin-4-yl)methyl)-8-cyano-1,2,3,4-tetrahydro-5H-pyrido[4,3-b]indole-5-carboxamide], the minimal effective concentration in assay [1] is 0.2 µM; in assay [2], above 100 µM.
`O=C(NCc1ccnc(F)c1)n1c2c(c3cc(F)c(Cl)cc31)CN(C/C=C/c1ccc(Cl)cc1F)CC2` [Example 310, (E)-7-chloro-2-(3-(4-chloro-2-fluorophenyl)allyl)-8-fluoro-N-((2-fluoropyridin-4-yl)methyl)-1,2,3,4-tetrahydro-5H-pyrido[4,3-b]indole-5-carboxamide]: the minimal effective concentration in assay [1] was 1.3 µM; in assay [2], 24.5 µM.
The corresponding values for `Cc1ccc2c(c1)c1c(n2C(=O)NCc2ccnc(Cl)c2)CCN(C/C=C/c2ccc(C#N)cc2)C1` [Example 430, (E)-N-((2-chloropyridin-4-yl)methyl)-2-(3-(4-cyanophenyl)allyl)-8-methyl-1,2,3,4-tetrahydro-5H-pyrido[4,3-b]indole-5-carboxamide] are 1 µM and above 100 µM.
For `O=C(NCc1ccnc(Cl)c1)n1c2c(c3ccc(OC(F)(F)F)cc31)CN(C/C=C/c1ccc(Cl)cc1)CC2` [Example 353, (E)-2-(3-(4-chlorophenyl)allyl)-N-((2-chloropyridin-4-yl)methyl)-7-(trifluoromethoxy)-1,2,3,4-tetrahydro-5H-pyrido[4,3-b]indole-5-carboxamide], the values for the minimal effective concentration in assay [1] and in assay [2] were 1 µM and 18.2 µM, respectively.
The corresponding values for `O=C(NCc1ccnc(Cl)c1)n1c2c(c3ccc(Cl)cc31)CN(C/C=C/c1ccc(C(F)(F)F)cc1)CC2` [Example 223, (E)-7-chloro-N-((2-chloropyridin-4-yl)methyl)-2-(3-(4-(trifluoromethyl)-phenyl)allyl)-1,2,3,4-tetrahydro-5H-pyrido[4,3-b]indole-5-carboxamide] are 10 µM and 3.3 µM.
The corresponding values for `O=C(NCc1ccnc(F)c1)n1c2c(c3cc(OC(F)(F)F)ccc31)CN(C/C=C/c1cc(F)c(F)c(F)c1)CC2` [Example 406, (E)-N-((2-fluoropyridin-4-yl)methyl)-8-(trifluoromethoxy)-2-(3-(3,4,5-trifluorophenyl)allyl)-1,2,3,4-tetrahydro-5H-pyrido[4,3-b]indole-5-carboxamide] are 0.4 µM and 13.5 µM.
The corresponding values for `COc1ccc(/C=C/CN2CCc3c(c4cc(Cl)c(Cl)cc4n3C(=O)NCc3ccnc(Cl)c3)C2)cc1` [Example 283, (E)-7,8-dichloro-N-((2-chloropyridin-4-yl)methyl)-2-(3-(4-methoxyphenyl)allyl)-1,2,3,4-tetrahydro-5H-pyrido[4,3-b]indole-5-carboxamide] are 0.5 µM and 3.3 µM.
Regarding `N#Cc1ccc2c(c1)c1c(n2C(=O)NCc2ccnc(F)c2)CCN(C/C=C/c2ccc(F)cc2Br)C1` [Example 125, (E)-2-(3-(2-bromo-4-fluorophenyl)allyl)-8-cyano-N-((2-fluoropyridin-4-yl)methyl)-1,2,3,4-tetrahydro-5H-pyrido[4,3-b]indole-5-carboxamide], the results for the minimal effective concentration in assay [1] and in assay [2] were 0.3 µM and above 100 µM, respectively.
The corresponding values for `O=C(NCc1ccnc(F)c1)n1c2c(c3cc(OC(F)(F)F)ccc31)CN(C/C=C/c1cc(F)cc(F)c1)CC2` [Example 407, (E)-2-(3-(3,5-difluorophenyl)allyl)-N-((2-fluoropyridin-4-yl)methyl)-8-(trifluoromethoxy)-1,2,3,4-tetrahydro-5H-pyrido[4,3-b]indole-5-carboxamide] are 1 µM and 5.7 µM.
The corresponding values for `O=C(NCc1ccnc(Cl)c1)n1c2c(c3ccc(Br)cc31)CN(C/C=C/c1ccc(Cl)cc1)CC2` [Example 443, (E)-7-bromo-2-(3-(4-chlorophenyl)allyl)-N-((2-chloropyridin-4-yl)methyl)-1,2,3,4-tetrahydro-5H-pyrido[4,3-b]indole-5-carboxamide] are 0.5 µM and 3.3 µM.
On to `N#Cc1ccc2c(c1)c1c(n2C(=O)NCc2ccnc(F)c2)CCN(C/C=C/c2cc(F)cc(F)c2)C1` [Example 117, (E)-8-cyano-2-(3-(3,5-difluorophenyl)allyl)-N-((2-fluoropyridin-4-yl)methyl)-1,2,3,4-tetrahydro-5H-pyrido[4,3-b]indole-5-carboxamide], for which the results for the minimal effective concentration in assay [1] and in assay [2] were 0.2 µM and 1.8 µM, respectively.
The corresponding values for `N#Cc1ccc(/C=C/CN2CCc3c(c4ccc(C(F)(F)F)cc4n3C(=O)NCc3ccnc(Cl)c3)C2)cc1F` [Example 153, (E)-N-((2-chloropyridin-4-yl)methyl)-2-(3-(4-cyano-3-fluorophenyl)allyl)-7-(trifluoromethyl)-1,2,3,4-tetrahydro-5H-pyrido[4,3-b]indole-5-carboxamide] are 1.3 µM and 7.6 µM.
The corresponding values for `CS(=O)(=O)c1ccc2c(c1)c1c(n2C(=O)NCc2ccnc(Cl)c2)CCN(C/C=C/c2ccc(F)cc2F)C1` [Example 456, (E)-N-((2-chloropyridin-4-yl)methyl)-2-(3-(2,4-difluorophenyl)allyl)-8-(methylsulfonyl)-1,2,3,4-tetrahydro-5H-pyrido[4,3-b]indole-5-carboxamide] are 1.3 µM and 10 µM.
The corresponding values for `O=C(NCc1ccnc(F)c1)n1c2c(c3cc(-c4cccc(Cl)c4)ccc31)CN(C/C=C/c1ccc(Cl)cc1)CC2` [Example 462, (E)-8-(3-chlorophenyl)-2-(3-(4-chlorophenyl)allyl)-N-((2-fluoropyridin-4-yl)methyl)-1,2,3,4-tetrahydro-5H-pyrido[4,3-b]indole-5-carboxamide] are above 100 µM and above 100 µM.
`O=C(NCc1ccnc(Cl)c1)n1c2c(c3ccc(Cl)cc31)CN(C/C=C/c1ccc(F)cc1)CC2` [Example 217, (E)-7-chloro-N-((2-chloropyridin-4-yl)methyl)-2-(3-(4-fluorophenyl)allyl)-1,2,3,4-tetrahydro-5H-pyrido[4,3-b]indole-5-carboxamide]: the minimal effective concentration came to 1.8 µM in assay [1] and 3.3 µM in assay [2].
The corresponding values for `O=C(NCc1ccnc(Cl)c1)n1c2c(c3cc(Cl)ccc31)CN(C/C=C/c1ccc(Cl)c(F)c1)CC2` [Example 232, (E)-8-chloro-2-(3-(4-chloro-3-fluorophenyl)allyl)-N-((2-chloropyridin-4-yl)methyl)-1,2,3,4-tetrahydro-5H-pyrido[4,3-b]indole-5-carboxamide] are 1 µM and 10 µM.
On to `N#Cc1cc2c(cc1Cl)c1c(n2C(=O)NCc2ccnc(Cl)c2)CCN(C/C=C/c2ccc(Cl)cc2)C1` [Example 296, (E)-8-chloro-2-(3-(4-chlorophenyl)allyl)-N-((2-chloropyridin-4-yl)methyl)-7-cyano-1,2,3,4-tetrahydro-5H-pyrido[4,3-b]indole-5-carboxamide], for which the minimal effective concentration in assay [1] was 1 µM; in assay [2], above 100 µM.
Take `O=C(NCc1ccnc(Cl)c1)n1c2c(c3cc(Cl)ccc31)CN(Cc1ccc3cc(Cl)ccc3n1)CC2` [Example 247, 8-chloro-N-((2-chloropyridin-4-yl)methyl)-2-((6-chloroquinolin-2-yl)methyl)-1,2,3,4-tetrahydro-5H-pyrido[4,3-b]indole-5-carboxamide]: the minimal effective concentration in assay [1] worked out at 1 µM; in assay [2], 1.8 µM.
As for `COc1cc(CNC(=O)n2c3c(c4cc(C#N)ccc42)CN(C/C=C/c2ccc(Cl)c(Cl)c2)CC3)ccn1` [Example 69, (E)-8-cyano-2-(3-(3,4-dichlorophenyl)allyl)-N-((2-methoxypyridin-4-yl)methyl)-1,2,3,4-tetrahydro-5H-pyrido[4,3-b]indole-5-carboxamide], the minimal effective concentration was determined as 0.02 µM in assay [1] and 0.03 µM in assay [2].
Take `O=C(NCc1ccnc(F)c1)n1c2c(c3cc(F)c(Cl)cc31)CN(C/C=C/c1ccc(F)cc1F)CC2` [Example 312, (E)-7-chloro-2-(3-(2,4-difluorophenyl)allyl)-8-fluoro-N-((2-fluoropyridin-4-yl)methyl)-1,2,3,4-tetrahydro-5H-pyrido[4,3-b]indole-5-carboxamide]: the minimal effective concentration in assay [1] came to 0.1 µM; in assay [2], 1 µM.
The corresponding values for `O=C(NCc1ccnc(Cl)c1)n1c2c(c3ccc(Br)cc31)CN(C/C=C/c1ccc(F)c(F)c1)CC2` [Example 440, (E)-7-bromo-N-((2-chloropyridin-4-yl)methyl)-2-(3-(3,4-difluorophenyl)allyl)-1,2,3,4-tetrahydro-5H-pyrido[4,3-b]indole-5-carboxamide] are 1.8 µM and 10 µM.
The corresponding values for `O=C(NCc1ccnc(F)c1)n1c2c(c3ccc(OC(F)(F)F)cc31)CN(C/C=C/c1ccc(F)cc1Cl)CC2` [Example 373, (E)-2-(3-(2-chloro-4-fluorophenyl)allyl)-N-((2-fluoropyridin-4-yl)methyl)-7-(trifluoromethoxy)-1,2,3,4-tetrahydro-5H-pyrido[4,3-b]indole-5-carboxamide] are 1.8 µM and 10 µM.
The corresponding values for `CSc1ccc2c(c1)c1c(n2C(=O)NCc2ccnc(Cl)c2)CCN(C/C=C/c2ccc(Cl)c(F)c2)C1` [Example 445, (E)-2-(3-(4-chloro-3-fluorophenyl)allyl)-N-((2-chloropyridin-4-yl)methyl)-8-(methylthio)-1,2,3,4-tetrahydro-5H-pyrido[4,3-b]indole-5-carboxamide] are 0.5 µM and 33 µM.
